According to patent publication US6410684B1, “Serine protease inhibitors” (Akzo Nobel N.V., priority 1996, dated 2002):

Target: T1, Thrombin (Factor IIa) (Homo sapiens, UniProt P00734)
T1 construct: purchased Centraal Laboratorium voor Bloedtransfusie, Amsterdam, The Netherlands
Test: Anti-thrombin assay (hydrolysis of chromogenic substrate S-2238)
Format: biochemical
Conditions: chromogenic substrate S-2238, TNP buffer, 37° C., absorbance at 405 nm
Procedure: Thrombin (Factor IIa) is a factor in the coagulation cascade. The anti-thrombin activity of compounds of the present invention was assessed by measuring spectrophotometrically the rate of hydrolysis of the chromogenic substrate s-2238 exterted by thrombin. This assay for anti-thrombin activity in a buffer system was used to assess the IC50-value of a test compound.
Test medium: Tromethamine-NaCl-polyethylene glycol 6000 (TNP) buffer. Reference compound: 12581 (Kabi) Vehicle: TNP buffer. Solubilisation can be assisted with dimethylsulphoxide, methanol, ethanol, acetonitrile or tert-butyl alcohol which are without adverse effects in concentrations up to 2.5% in the final reaction mixture.
Reagents*: 1. Tromethamine-NaCl (TN) buffer. Composition of the buffer: Tromethamine (Tris) 6.057 g (50 mmol), NaCl 5.844 g (100 mmol), water to 1 l. The pH of the solution is adjusted to 7.4 at 37° C. with HCl (10 mmol·l^−1). 2. TNP buffer: Polyethylene glycol 6000 is dissolved in TN buffer to give a concentration of 3 g·l^−1. 3. S-2238 solution: One vial S-2238 (25 mg; Kabi Diagnostica, Sweden) is dissolved in 20 ml TN buffer to give a concentration of 1.25 mg·ml^−1 (2 mmol·l^−1). 4. Thrombin solution: Human thrombin (16 000 nKat·vial^−1; Centraal Laboratorium voor Bloedtransfusie, Amsterdam, The Netherlands) is dissolved in TNP buffer to give a stock solution of 835 nKat·ml^−1. Immediately before use this solution is diluted with TNP buffer to give a concentration of 3.34 nKat·ml^−1.
The test and reference compounds are dissolved in Milli-Q water to give stock concentrations of 10^−2 mol·l^−1. Each concentration is stepwise diluted with the vehicle to give concentrations of 10^−3, 10^−4 and 10^−5 mol·l^−1. The dilutions, including the stock solution, are used in the assay (final concentrations in the reaction mixture: 3·10^−3; 10^−3; 3·10^−4; 10^−4; 3·10^−5; 10^−5; 3·10^−6; and 10^−6 mol·l^−1, respectively).
At room temperature 0.075 ml and 0.025 ml test compound or reference compound solutions or vehicle are alternately pipetted into the wells of a microtiter plate and these solutions are diluted with 0.115 ml and 0.0165 ml TNP buffer, respectively. An aliquot of 0.030 ml S-2238 solution is added to each well and the plate is pre-heated and pre-incubated with shaking in an incubator (Amersham) for 10 min. at 37° C. Following pre-incubation the hydrolysis of S-2238 is started by addition of 0.030 ml thrombin solution to each well. The plate is incubated (with shaking for 30 s) at 37° C. Starting after 1 min of incubation, the absorbance of each sample at 405 nm is measured every 2 min. for a period of 90 min. using a kinetic microtiter plate reader (Twinreader plus, Flow Laboratories).
All data are collected in an IBM personal computer using LOTUS-MEASURE. For each compound concentration (expressed in mol·l^−1 reaction mixture) and for the blank the absorbance is plotted versus the reaction time in min.
Evaluation of responses: For each final concentration the maximum absorbance was calculated from the assay plot. The IC50-value (final concentration, expressed in μmol·l^−1, causing 50% inhibition of the maximum absorbance of the blank) was calculated using the logit transformation analysis according to Hafner et al. (Arzneim.-Forsch./Drug Res. 1977; 27(II): 1871-3).

NCC#CCC(NC(=O)C1CCCN1C(=O)C(Cc1ccccc1)NCC(=O)O)C(=O)C(=O)O [Example 11, HOOC—CH2-D-Phe-Pro-LysininylΨ[COCO]—OH]
IC50: 5 µM

NCC#CCC(NC(=O)C1CCCN1C(=O)C(CC1CCCCC1)NCC(=O)O)C(=O)c1nccs1 (stereo not drawn) [Example 1]
IC50: 0.56 µM

NCCCCC(NC(=O)[C@@H]1CCCN1C(=O)[C@@H](Cc1ccc(Cl)cc1)NCC(=O)O)C(=O)c1nccs1 (stereo partly drawn) [Example 30, HOOC—CH2-D-p-Cl-Phe-Pro-Lysininyl-(2-thiazolyl)]
IC50: 5.1 µM

NCC#CCC(NC(=O)C1CCCN1C(=O)C(CC1CCCCC1)NCC(=O)O)C(=O)C(=O)N1CCC1 (stereo not drawn) [Example 15]
IC50: 0.7 µM

CNC(CC1CCCCC1)C(=O)N1CCCC1C(=O)NC(CC#CCN)C(=O)C(=O)O [Example 3, N-Me-D-Cha-Pro-LysininylΨ[COCO]—OH]
IC50: 4.3 µM

NCC#CCC(NC(=O)C1CCCN1C(=O)C1NCCC2CCCCC21)C(=O)c1nccs1 (stereo not drawn) [Example 27]
IC50: 4.64 µM
